{"source": "the NIST ThermoML archive (doi:10.1021/je400178k)", "experiment": "molar heat capacity at constant pressure", "conditions": "101 kPa, Liquid, Small sample (50 mg) DSC", "note": "Numbers after ± are expanded uncertainties."}
{"molecule": "CN1CCN(C)CC1", "note": "[1,4-dimethylpiperazine]", "values": [{"measurement": "molar heat capacity at constant pressure", "setting": "298.15 K", "value": "216.5 ± 3.7", "unit": "J/K/mol"}, {"measurement": "molar heat capacity at constant pressure", "setting": "303.15 K", "value": "221.7 ± 3.7", "unit": "J/K/mol"}, {"measurement": "molar heat capacity at constant pressure", "setting": "308.15 K", "value": "222.1 ± 3.7", "unit": "J/K/mol"}, {"measurement": "molar heat capacity at constant pressure", "setting": "313.15 K", "value": "223.4 ± 3.7", "unit": "J/K/mol"}, {"measurement": "molar heat capacity at constant pressure", "setting": "318.15 K", "value": "224.6 ± 3.8", "unit": "J/K/mol"}, {"measurement": "molar heat capacity at constant pressure", "setting": "323.15 K", "value": "225.3 ± 3.8", "unit": "J/K/mol"}, {"measurement": "molar heat capacity at constant pressure", "setting": "328.15 K", "value": "225.7 ± 3.8", "unit": "J/K/mol"}, {"measurement": "molar heat capacity at constant pressure", "setting": "333.15 K", "value": "227.5 ± 3.8", "unit": "J/K/mol"}, {"measurement": "molar heat capacity at constant pressure", "setting": "338.15 K", "value": "228.5 ± 3.8", "unit": "J/K/mol"}, {"measurement": "molar heat capacity at constant pressure", "setting": "343.15 K", "value": "229.6 ± 3.8", "unit": "J/K/mol"}, {"measurement": "molar heat capacity at constant pressure", "setting": "348.15 K", "value": "231.7 ± 3.8", "unit": "J/K/mol"}, {"measurement": "molar heat capacity at constant pressure", "setting": "353.15 K", "value": "235.9 ± 3.9", "unit": "J/K/mol"}]}
{"molecule": "OCCN1CCOCC1", "note": "[4-morpholineethanol]", "values": [{"measurement": "molar heat capacity at constant pressure", "setting": "298.15 K", "value": "263.9 ± 4.2", "unit": "J/K/mol"}, {"measurement": "molar heat capacity at constant pressure", "setting": "303.15 K", "value": "265.3 ± 4.3", "unit": "J/K/mol"}, {"measurement": "molar heat capacity at constant pressure", "setting": "308.15 K", "value": "267.1 ± 4.3", "unit": "J/K/mol"}, {"measurement": "molar heat capacity at constant pressure", "setting": "313.15 K", "value": "269.2 ± 4.3", "unit": "J/K/mol"}, {"measurement": "molar heat capacity at constant pressure", "setting": "318.15 K", "value": "270.8 ± 4.3", "unit": "J/K/mol"}, {"measurement": "molar heat capacity at constant pressure", "setting": "323.15 K", "value": "272.6 ± 4.3", "unit": "J/K/mol"}, {"measurement": "molar heat capacity at constant pressure", "setting": "328.15 K", "value": "274.3 ± 4.4", "unit": "J/K/mol"}, {"measurement": "molar heat capacity at constant pressure", "setting": "333.15 K", "value": "276.2 ± 4.4", "unit": "J/K/mol"}, {"measurement": "molar heat capacity at constant pressure", "setting": "338.15 K", "value": "278.7 ± 4.4", "unit": "J/K/mol"}, {"measurement": "molar heat capacity at constant pressure", "setting": "343.15 K", "value": "281 ± 4.4", "unit": "J/K/mol"}, {"measurement": "molar heat capacity at constant pressure", "setting": "348.15 K", "value": "283.2 ± 4.5", "unit": "J/K/mol"}, {"measurement": "molar heat capacity at constant pressure", "setting": "353.15 K", "value": "284.9 ± 4.5", "unit": "J/K/mol"}]}
{"molecule": "OCCN1CCNCC1", "note": "[N-(2-hydroxyethyl)piperazine]", "values": [{"measurement": "molar heat capacity at constant pressure", "setting": "298.15 K", "value": "285 ± 4.5", "unit": "J/K/mol"}, {"measurement": "molar heat capacity at constant pressure", "setting": "303.15 K", "value": "289.9 ± 4.6", "unit": "J/K/mol"}, {"measurement": "molar heat capacity at constant pressure", "setting": "308.15 K", "value": "292.9 ± 4.6", "unit": "J/K/mol"}, {"measurement": "molar heat capacity at constant pressure", "setting": "313.15 K", "value": "296 ± 4.6", "unit": "J/K/mol"}, {"measurement": "molar heat capacity at constant pressure", "setting": "318.15 K", "value": "298.9 ± 4.7", "unit": "J/K/mol"}, {"measurement": "molar heat capacity at constant pressure", "setting": "323.15 K", "value": "301.7 ± 4.7", "unit": "J/K/mol"}, {"measurement": "molar heat capacity at constant pressure", "setting": "328.15 K", "value": "305 ± 4.8", "unit": "J/K/mol"}, {"measurement": "molar heat capacity at constant pressure", "setting": "333.15 K", "value": "308.1 ± 4.8", "unit": "J/K/mol"}, {"measurement": "molar heat capacity at constant pressure", "setting": "338.15 K", "value": "311 ± 4.8", "unit": "J/K/mol"}, {"measurement": "molar heat capacity at constant pressure", "setting": "343.15 K", "value": "313.9 ± 4.9", "unit": "J/K/mol"}, {"measurement": "molar heat capacity at constant pressure", "setting": "348.15 K", "value": "316.5 ± 4.9", "unit": "J/K/mol"}, {"measurement": "molar heat capacity at constant pressure", "setting": "353.15 K", "value": "319 ± 4.9", "unit": "J/K/mol"}]}
{"molecule": "NCCCN1CCOCC1", "note": "[N-(3-aminopropyl)morpholine]", "values": [{"measurement": "molar heat capacity at constant pressure", "setting": "298.15 K", "value": "296.2 ± 4.6", "unit": "J/K/mol"}, {"measurement": "molar heat capacity at constant pressure", "setting": "303.15 K", "value": "298.2 ± 4.7", "unit": "J/K/mol"}, {"measurement": "molar heat capacity at constant pressure", "setting": "308.15 K", "value": "299.6 ± 4.7", "unit": "J/K/mol"}, {"measurement": "molar heat capacity at constant pressure", "setting": "313.15 K", "value": "301.2 ± 4.7", "unit": "J/K/mol"}, {"measurement": "molar heat capacity at constant pressure", "setting": "318.15 K", "value": "302.8 ± 4.7", "unit": "J/K/mol"}, {"measurement": "molar heat capacity at constant pressure", "setting": "323.15 K", "value": "304.5 ± 4.7", "unit": "J/K/mol"}, {"measurement": "molar heat capacity at constant pressure", "setting": "328.15 K", "value": "306.1 ± 4.8", "unit": "J/K/mol"}, {"measurement": "molar heat capacity at constant pressure", "setting": "333.15 K", "value": "307.9 ± 4.8", "unit": "J/K/mol"}, {"measurement": "molar heat capacity at constant pressure", "setting": "338.15 K", "value": "309.6 ± 4.8", "unit": "J/K/mol"}, {"measurement": "molar heat capacity at constant pressure", "setting": "343.15 K", "value": "311.3 ± 4.8", "unit": "J/K/mol"}, {"measurement": "molar heat capacity at constant pressure", "setting": "348.15 K", "value": "312.7 ± 4.9", "unit": "J/K/mol"}, {"measurement": "molar heat capacity at constant pressure", "setting": "353.15 K", "value": "313.4 ± 4.9", "unit": "J/K/mol"}]}
{"molecule": "CN1CCNCC1", "note": "[N-methylpiperazine]", "values": [{"measurement": "molar heat capacity at constant pressure", "setting": "298.15 K", "value": "213.9 ± 3.6", "unit": "J/K/mol"}, {"measurement": "molar heat capacity at constant pressure", "setting": "303.15 K", "value": "214.4 ± 3.6", "unit": "J/K/mol"}, {"measurement": "molar heat capacity at constant pressure", "setting": "308.15 K", "value": "215 ± 3.6", "unit": "J/K/mol"}, {"measurement": "molar heat capacity at constant pressure", "setting": "313.15 K", "value": "215.7 ± 3.6", "unit": "J/K/mol"}, {"measurement": "molar heat capacity at constant pressure", "setting": "318.15 K", "value": "216.4 ± 3.7", "unit": "J/K/mol"}, {"measurement": "molar heat capacity at constant pressure", "setting": "323.15 K", "value": "216.9 ± 3.7", "unit": "J/K/mol"}, {"measurement": "molar heat capacity at constant pressure", "setting": "328.15 K", "value": "217.3 ± 3.7", "unit": "J/K/mol"}, {"measurement": "molar heat capacity at constant pressure", "setting": "333.15 K", "value": "217.2 ± 3.7", "unit": "J/K/mol"}, {"measurement": "molar heat capacity at constant pressure", "setting": "338.15 K", "value": "215.5 ± 3.6", "unit": "J/K/mol"}, {"measurement": "molar heat capacity at constant pressure", "setting": "343.15 K", "value": "216.2 ± 3.7", "unit": "J/K/mol"}, {"measurement": "molar heat capacity at constant pressure", "setting": "348.15 K", "value": "217.6 ± 3.7", "unit": "J/K/mol"}, {"measurement": "molar heat capacity at constant pressure", "setting": "353.15 K", "value": "218 ± 3.7", "unit": "J/K/mol"}]}
